# Results as given in patent US20110040086A1, “Novel Beta-Lactam Antibiotics, Methods for Their Production, and Their Use” (DRITTE PATENTPORTFOLIO BETEILIGUNGSGESELLSCHAFT MB, priority 2007, published 2011).
# Key:
# [1] = system: Bacillus megaterium SBUG 1152; assay: agar diffusion test (Test System 1, antimicrobial effect); type: cell-based
# Experimental: (§1) Test System 1 (Antimicrobial Effect)
# (§2) The test germs Escherichia coli SBUG 1135 and Bacillus megaterium SBUG 1152 are drawn overnight (17 hours at 37° C.) in 5 ml nutrient medium II. The incubation is performed in a shaking incubator (INFORS AG CH 4103, Bottmingen, Switzerland) at a shaking frequency of 180 rpm.
# (§3) After 17 h incubation time, Escherichia coli has reached a cell density of ca. 2.4×10^10 cells/ml and Bacillus megaterium a cell density of ca. 2.1×10^8 cells/ml.
# (§4) The seeding of bacteria in agar is selected so that, dense, but not confluent individual colonies develop after the incubation.
# Bacillus megaterium: 0.1 ml of non-diluted overnight culture (ÜN) in 10 ml nutrient agar corresponds to a cell count of 10^6.
# (§5) The inoculated nutrient agar is set in sterile Petri dishes and left standing for a few minutes for drying.
# (§6) The test substances are deposited in stepped quantities (10 μg, 50 μg, 100 μg) onto active ingredient carriers (sensi-discs). For this purpose, the test substances are dissolved in methanol or A. dest. according to their solubility. Each inoculated plate is fitted with 3 test sheets.
# (§7) After a 20-hour incubation time at 37° C., the zones of inhibition around the individual test sheets could be measured. The diameter of the zone of inhibition is specified in mm.
# B. subtilis AWD 166 = assay: agar diffusion test (antimicrobial effect); type: cell-based, Bacillus subtilis
# Experimental: as §4, §5, §6, §7
# [2] = system: Escherichia coli SBUG 1135; assay: agar diffusion test (Test System 1, antimicrobial effect); type: cell-based
# Experimental: as §1, §2, §3, §4
# Escherichia coli: the ÜN is diluted 1:100 with physiological saline solution, of which 0.1 ml is converted into 10 ml nutrient agar. That corresponds to a cell count of 10^6.
# as §5, §6, §7
# [3] = system: Enterococcus faecalis 769; assay: agar diffusion test (Test System II, multi-resistant germs); type: cell-based; parameters: key: r = resistant (no detectable zone of inhibition)
# Outline: (§8)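 Discs loaded with 10, 50 or 100 μg compound (dissolved in methanol or distilled water) placed on Müller-Hinton agar II inoculated with McFarland 0.5 suspension. Incubated 18-20 h at 37 °C. Inhibition zone diameter read as activity.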
# [4] = system: Staphylococcus aureus 315; assay: as above; type: cell-based; parameters: key: r = resistant (no detectable zone of inhibition)
# Outline: as §8
# E. faecalis 945 = assay: as above; type: cell-based, Enterococcus faecalis; parameters: key: r = resistant (no detectable zone of inhibition)
# Experimental: as §6
# Test System II (Effect Against Multi-Resistant Germs)
# For this purpose, bacteria is cultivated on Müller-Hinton-Agar II plates.
# With 1-1.5 ml physiological saline solution, a bacteria suspension of McFarland 0.5 (corresponds to a bacteria density of 150×10^6 germs) is produced. Then, with a sterile glass rod, a small drop of bacteria suspension is placed on the Müller-Hinton-Agar plate and coated in three layers (vertical, horizontal, and transverse). Thereafter, the sensi-discs with the novel semi-synthetic test substances are placed on top. The fitted plates are incubated for 18-20 hours at 37° C. After incubation, the diameters of the zones of inhibition are read as a measure for the antimicrobial activity of the novel semi-synthetic test substances.
# S. aureus 33490 = assay: as above; type: cell-based, Staphylococcus aureus; parameters: key: r = resistant (no detectable zone of inhibition)
# Outline: as §8
# S. aureus 34289 = assay: as above; type: cell-based, Staphylococcus aureus; parameters: key: r = resistant (no detectable zone of inhibition)
# Outline: as §8
# S. aureus 36881 = assay: as above; type: cell-based, Staphylococcus aureus; parameters: key: r = resistant (no detectable zone of inhibition)
# Outline: as §8
# S. aureus 39105 = assay: as above; type: cell-based, Staphylococcus aureus; parameters: key: r = resistant (no detectable zone of inhibition)
# Outline: as §8
# S. aureus 520 = assay: as above; type: cell-based, Staphylococcus aureus; parameters: key: r = resistant (no detectable zone of inhibition)
# Outline: as §8
# S. aureus 526 = assay: as above; type: cell-based, Staphylococcus aureus; parameters: key: r = resistant (no detectable zone of inhibition)
# Outline: as §8
# [5] = system: S. aureus North Germany strain; assay: as above; type: cell-based, Staphylococcus aureus; parameters: key: r = resistant (no detectable zone of inhibition)
# Outline: as §8
# S. aureus 38418 = assay: as above; type: cell-based, Staphylococcus aureus
# Outline: as §8
# S. aureus ATCC 6538 = assay: as above; type: cell-based, Staphylococcus aureus
# Outline: as §8
# S. epidermidis 1068 = assay: as above; type: cell-based, Staphylococcus epidermidis
# Outline: as §8
# S. epidermidis 1071 = assay: as above; type: cell-based, Staphylococcus epidermidis
# Outline: as §8
# S. epidermidis 563 = assay: as above; type: cell-based, Staphylococcus epidermidis
# Outline: as §8
# S. epidermidis 847 = assay: as above; type: cell-based, Staphylococcus epidermidis
# Outline: as §8
# S. epidermidis 125 = assay: as above; type: cell-based, Staphylococcus epidermidis
# Outline: as §8
# [6] = logP value by HPLC according to Donovan et al.; conditions: HPLC with methanol/0.1% phosphoric acid gradient, pH 2
# Experimental: • Operating temperature 18-24° C. • Flow 1.5 mL/min • Linear gradient (methanol/0.1% phosphoric acid pH 2) from 10% to 100% methanol in 9.4 min, equilibrium time between 2 runs 6 min
# ca. 0.5 mg of analyte is added to 0.5 ml of a standard solution (440 mg methyl phenyl sulfonate and 380 μl toluene in 150 mL methanol). 2 μl of this sample solution is injected.
# Because the distribution coefficients of the two standards running in each test are known, the distribution coefficient of the analytes can be determined from the relationships of the analyte/standard retention times.
smiles,measurement,setting,value
"CC1=C(C(=O)O)N2C(=O)[C@@H](NC(=O)[C@H](N)c3ccc(O)cc3)[C@H]2SC1 [2a, Cefadroxil, reference compound]",Diameter of zone of inhibition,[1]; Quantity n 0.019,36^1 mm
same,Diameter of zone of inhibition,[1]; Quantity n 0.1,38 mm
same,Diameter of zone of inhibition,[1]; Quantity n 0.19,40 mm
same,Diameter of zone of inhibition,B. subtilis AWD 166; Quantity n 0.019,36 mm
same,Diameter of zone of inhibition,B. subtilis AWD 166; Quantity n 0.1,38 mm
same,Diameter of zone of inhibition,B. subtilis AWD 166; Quantity n 0.19,40 mm
same,Diameter of zone of inhibition,[2]; Quantity n 0.019,18 mm
same,Diameter of zone of inhibition,[2]; Quantity n 0.1,22 mm
same,Diameter of zone of inhibition,[2]; Quantity n 0.19,26 mm
same,Diameter of zone of inhibition,[3]; Quantity n 0.019,r
same,Diameter of zone of inhibition,[3]; Quantity n 0.1,10 mm
same,Diameter of zone of inhibition,[3]; Quantity n 0.19,14 mm
same,Diameter of zone of inhibition,[4]; Quantity n 0.019,r
same,Diameter of zone of inhibition,[4]; Quantity n 0.1,r
same,Diameter of zone of inhibition,[4]; Quantity n 0.19,8 mm
same,Diameter of zone of inhibition,E. faecalis 945; Quantity n 0.019,r
same,Diameter of zone of inhibition,E. faecalis 945; Quantity n 0.1,r
same,Diameter of zone of inhibition,E. faecalis 945; Quantity n 0.19,r
same,Diameter of zone of inhibition,S. aureus 33490; Quantity n [μmol] 0.019,16 mm
same,Diameter of zone of inhibition,S. aureus 33490; Quantity n [μmol] 0.1,24 mm
same,Diameter of zone of inhibition,S. aureus 33490; Quantity n [μmol] 0.19,28 mm
same,Diameter of zone of inhibition,S. aureus 34289; Quantity n [mol] 0.019,r
same,Diameter of zone of inhibition,S. aureus 34289; Quantity n [mol] 0.1,r
same,Diameter of zone of inhibition,S. aureus 34289; Quantity n [mol] 0.19,r
same,Diameter of zone of inhibition,S. aureus 36881; Quantity n 0.019,r
same,Diameter of zone of inhibition,S. aureus 36881; Quantity n 0.1,14 mm
same,Diameter of zone of inhibition,S. aureus 36881; Quantity n 0.19,18 mm
same,Diameter of zone of inhibition,S. aureus 39105; Quantity n 0.019,16 mm
same,Diameter of zone of inhibition,S. aureus 39105; Quantity n 0.1,24 mm
same,Diameter of zone of inhibition,S. aureus 39105; Quantity n 0.19,26 mm
same,Diameter of zone of inhibition,S. aureus 520; Quantity n [mol] 0.019,r
same,Diameter of zone of inhibition,S. aureus 520; Quantity n [mol] 0.1,r
same,Diameter of zone of inhibition,S. aureus 520; Quantity n [mol] 0.19,8 mm
same,Diameter of zone of inhibition,S. aureus 526; Quantity n 0.019,r
same,Diameter of zone of inhibition,S. aureus 526; Quantity n 0.1,r
same,Diameter of zone of inhibition,S. aureus 526; Quantity n 0.19,r
same,Diameter of zone of inhibition,[5]; Quantity n 0.019,r
same,Diameter of zone of inhibition,[5]; Quantity n 0.1,r
same,Diameter of zone of inhibition,[5]; Quantity n 0.19,10 mm
same,Diameter of zone of inhibition,S. aureus 38418; Quantity n [mol] 0.019,30 mm
same,Diameter of zone of inhibition,S. aureus 38418; Quantity n [mol] 0.1,34 mm
same,Diameter of zone of inhibition,S. aureus 38418; Quantity n [mol] 0.19,38 mm
same,Diameter of zone of inhibition,S. aureus ATCC 6538; Quantity n 0.019,32 mm
same,Diameter of zone of inhibition,S. aureus ATCC 6538; Quantity n 0.1,38 mm
same,Diameter of zone of inhibition,S. aureus ATCC 6538; Quantity n 0.19,40 mm
same,Diameter of zone of inhibition,S. epidermidis 1068; Quantity n 0.019,20 mm
same,Diameter of zone of inhibition,S. epidermidis 1068; Quantity n 0.1,24 mm
same,Diameter of zone of inhibition,S. epidermidis 1068; Quantity n 0.19,26 mm
same,Diameter of zone of inhibition,S. epidermidis 1071; Quantity n 0.019,22 mm
same,Diameter of zone of inhibition,S. epidermidis 1071; Quantity n 0.1,28 mm
same,Diameter of zone of inhibition,S. epidermidis 1071; Quantity n 0.19,30 mm
same,Diameter of zone of inhibition,S. epidermidis 563; Quantity n 0.019,24 mm
same,Diameter of zone of inhibition,S. epidermidis 563; Quantity n 0.1,28 mm
same,Diameter of zone of inhibition,S. epidermidis 563; Quantity n 0.19,32 mm
same,Diameter of zone of inhibition,S. epidermidis 847; Quantity n [mol] 0.019,12 mm
same,Diameter of zone of inhibition,S. epidermidis 847; Quantity n [mol] 0.1,26 mm
same,Diameter of zone of inhibition,S. epidermidis 847; Quantity n [mol] 0.19,30 mm
same,Diameter of zone of inhibition,S. epidermidis 125; Quantity n 0.019,26 mm
same,Diameter of zone of inhibition,S. epidermidis 125; Quantity n 0.1,36 mm
same,Diameter of zone of inhibition,S. epidermidis 125; Quantity n 0.19,40 mm
same,chromatographic logP,[6],-3.5
